The results in this text go back to publication PMC8667612 (Journal of medicinal chemistry, 2021).

Test [1] has as its target T1, N. fowleri CYP51 (Naegleria fowleri, UniProt A0A6A5BCR7, E4K/I5A/S2A, form not given). Conditions: read-out: IC50 (1 h reaction).
In test [2] the target is T1, N. fowleri CYP51. The test is classed as biochemical. To be noted: 0.5 μM P450, 60 s at 37 °C, sterol 3–50 μM.

Values joined by “and” are separate entries in the source; they are usually repeats but may differ in a detail not shown here. Identical values can stand only once.

For the molecule `O=C(N[C@@H](Cn1ccnc1)c1ccc(-c2ccc(F)cc2)cc1F)c1ccc(-c2nnc(-c3ccccc3)o2)cc1` [VFV, (R)-N-(1-(3,4’-difluoro-[1,1’-biphenyl]-4-yl)-2-(1H-imidazol-1-yl)-ethyl)-4-(5-phenyl-1,3,4-oxadiazol-2-yl)benzamide], in test [1], the IC50 was found to be 0.68 µM. On the same count and under the same terms, the result for `C[C@@H](c1nc(-c2ccc(C#N)cc2)cs1)[C@](O)(Cn1cncn1)c1cc(F)ccc1F` [isavuconazole, reference compound] reads 0.96 µM. `CC(C)=CCC[C@@H](C)[C@H]1CC[C@@]2(C)C3=C(CC[C@]12C)[C@@]1(C)CC[C@H](O)C(C)(C)[C@@H]1CC3` [lanosterol]: the Km in test [2] was 48 ± 10 µM.

In the case of `O=C(N[C@@H](Cn1ccnc1)c1ccc(-c2ccc(F)cc2)cc1Cl)c1ccc(-c2nnc(-c3ccccc3)o2)cc1` [VFV-Cl, (R)-N-(1-(3-chloro-4’-fluoro-[1,1’-biphenyl]-4-yl)-2-(1H-imidazol-1-yl)ethyl)-4-(5-phenyl-1,3,4-oxadiazol-2-yl)benzamide], the IC50 in test [1] is 5.9 µM and 5.94 µM. For `C=C(CC[C@@H](C)[C@H]1CC[C@@]2(C)C3=C(CC[C@]12C)[C@@]1(C)CC[C@H](O)[C@@H](C)[C@@H]1CC3)C(C)C` [obtusifoliol], the Michaelis constant (Km) in test [2] turned out to be 8 ± 1 µM.
